Tests used:
[1] = test system: liver fat globules; assay: Amounts and diameter of liver fat globules in IHC-stained liver sections (steatohepatitis); format: in vivo; parameters: Amounts of liver fat globules, p-HSL staining / Amounts of liver fat globules, TNF-α staining / Amounts of liver fat globules, MMP-9 staining / Amounts of liver fat globules, HSL staining / Amounts of fat globules in steatohepatitis, ATGL staining / Amounts of fat globules in steatohepatitis, CD11c-M1 staining / Amounts of fat globules in steatohepatitis, CD209a-M2 staining: unit not given here; details: HFD mice
Procedure: The diameter of the white bar in the photograph was standardized at […] for measuring the specific diameter of oil globulets in a whole liver slice, observed by microscope, with the aid of Powerpoint PC computer software (Microsoft®, U.S.A.) and printed out by a Hewlett-Packard® printer (U.S.A.). An increase in oil globulet diameter and cell number indicated increasing liver steatosis, i.e. steaotohepatitis. In contrast, decrease in diameter and the number of fat cells indicated the inhibition of steaotohepatitis. […] Hematoxylin-eosin (H&E) and IHC staining of liver were used to assess oil globulet numbers under a microscope.
(§1) For IHC of MMP-9/TNFα, HSL/p-HSL/ATGL and eNOS/IL-10, antigen retrieval of de-paraffinated sections was performed in Dako target retrieval solution, pH 9.0, in a vegetable steamer followed by the quenching of endogenous peroxidase activity with 3.0% H2O2 in methanol. Sections were then incubated with specific primary antibodies overnight at 4° C. in a humidified chamber. The antibodies used included rabbit polyclonal anti-eNOS (1:50 dilution) (Abcam, Cambridge, UK) or rabbit monoclonal anti-cleaved caspase-3 (1:50 dilution) (Cell Signaling, U.S.A.). The sections were then examined using a DAKO REAL EnVision™ Detection System kit (DAKO, Carpinteria, Calif., U.S.A.) and counterstained with hematoxylin. Images were obtained through a Nikon Eclipse TE200-S microscope.

[2] = test system: epididymal fat pads; assay: Epididymal fat pad weight and diameter in HFD mice; format: in vivo
Procedure: (§2) Mice liver and epididymal fat pads were cut and soaked in formalin, dehydrated through graded alcohols and embedded in paraffin. Specimens of liver tissues and epididymal fat pads fixed with formalin (4%) were embedded in paraffin for one hour at 4° C., cut into 4-μm-thick sections, and subjected to H&E staining before examination by light microscope.

[3] = test system: IL-10; assay: IHC staining of IL-10 in epididymal fat pads; format: in vivo, mice; details: HFD 14 weeks, KMUP-1 2.5 mg/kg/day, Control 31
Procedure: as §1

[4] = test system: fatty liver; assay: Gross morphology and H&E staining of liver of HFD mice; format: in vivo
Procedure: as §2

Cn1c(=O)c2c(ncn2CCN2CCN(c3ccccc3Cl)CC2)n(C)c1=O [KMUP-1, 7-[2-[4-(2-chlorophenyl)piperazinyl]ethyl]-1,3-dimethylxanthine]
Amounts of fat globules in steatohepatitis, ATGL staining ([1]; Protection group): 28 | Amounts of fat globules in steatohepatitis, CD11c-M1 staining ([1]; Protection group): 26 | Amounts of fat globules in steatohepatitis, CD209a-M2 staining ([1]; Protection group): 41 | Amounts of liver fat globules, HSL staining ([1]; Protection group): 115 | Amounts of liver fat globules, MMP-9 staining ([1]; Protection group): 18 | Amounts of liver fat globules, TNF-α staining ([1]; Protection group): 18 | Amounts of liver fat globules, p-HSL staining ([1]; Protection group): 28 | Diameter of fat globules in steatohepatitis, ATGL staining ([1]; Protection group): 5.5 μm | Diameter of fat globules in steatohepatitis, CD11c-M1 staining ([1]; Protection group): 8 μm | Diameter of fat globules in steatohepatitis, CD209a-M2 staining ([1]; Protection group): 9.5 μm | Diameter of liver fat globules, HSL staining ([1]; Protection group): 9.7 μm | Diameter of liver fat globules, MMP-9 staining ([1]; Protection group): 8 μm | Diameter of liver fat globules, TNF-α staining ([1]; Protection group): 8 μm | Diameter of liver fat globules, p-HSL staining ([1]; Protection group): 3.9 μm | Amounts of fat globules in steatohepatitis, ATGL staining ([1]; Treatment group): 46 | Amounts of fat globules in steatohepatitis, CD11c-M1 staining ([1]; Treatment group): 41 | Amounts of fat globules in steatohepatitis, CD209a-M2 staining ([1]; Treatment group): 50 | Amounts of liver fat globules, HSL staining ([1]; Treatment group): 116 | Amounts of liver fat globules, MMP-9 staining ([1]; Treatment group): 19 | Amounts of liver fat globules, TNF-α staining ([1]; Treatment group): 19 | Amounts of liver fat globules, p-HSL staining ([1]; Treatment group): 68 | Diameter of fat globules in steatohepatitis, ATGL staining ([1]; Treatment group): 9.8 μm | Diameter of fat globules in steatohepatitis, CD11c-M1 staining ([1]; Treatment group): 15.5 μm | Diameter of fat globules in steatohepatitis, CD209a-M2 staining ([1]; Treatment group): 11.8 μm | Diameter of liver fat globules, HSL staining ([1]; Treatment group): 9.8 μm | Diameter of liver fat globules, MMP-9 staining ([1]; Treatment group): 9 μm | Diameter of liver fat globules, TNF-α staining ([1]; Treatment group): 9 μm | Diameter of liver fat globules, p-HSL staining ([1]; Treatment group): 9.8 μm | Fat pads diameter ([2]; HFD mice 14 weeks, KMUP-1 2.5 mg/kg/day, Control 46): 28 μm | Weight of fat pads (R) ([2]; HFD mice, KMUP-1 2.5 mg/kg/day for 14 weeks, Control 165): 120 mg | Weight of fat pads (L) ([2]; HFD mice, KMUP-1 2.5 mg/kg/day for 14 weeks, Control 170): 96 mg | Immunorespons percentages, IL-10 [3]: 56% | Fatty liver (gross morphology) ([4]; drinking 2.5 mg/200 ml water, protective group): markedly decreased | fat globules and Mallory's hyaline bodies (H&E staining of liver) ([4]; oral 2.5 mg/kg, last 6 weeks/14 weeks): reduced

From patent US20190008870A1, “COMPOSITIONS AND METHODS FOR LIPID METABOLISM DISORDER” (JANSFAT BIOTECHNOLOGY CO., LTD., priority 2016, published 2019)
